Experimental data: US12234486B2, “Modular, microfluidic, mechanically active bioreactor for 3D, multi-tissue, tissue culture” (University of Pittsburgh—Of the Commonwealth System of …, priority 2013, dated 2025)

System: chondrocytes in the cartilage chamber
Test: RT-PCR marker expression in cartilage (top) chamber of bioreactor after hormone supply
Type: cell-based
Details: progesterone progressively added to estradiol, week 3 and 4 (10 nM, 50 nM), higher when hormones directly applied to cartilage
Description: FIGS. 17-20 are graphs that show differential expression of markers (as determined by RT-PCR) for a control medium that contained no estrogen or progesterone (first bar), and then different concentrations of hormones supplied to one or the other of the bioreactor chambers during week 1 (w1: 0.1 nM estradiol), week 2 (w2: 1 nM estradiol), week 3 (w3: 1 nM estradiol and 10 nM progesterone), and week 4 (w4: 0.1 nM estradiol and 50 nM progesterone). […] FIGS. 17-18 show differential expression of markers (as determined by RT-PCR) for a control medium that contained no estrogen or progesterone (first bar), and then different concentrations of hormones supplied to the chambers during week 1 (w1: 0.1 nM estradiol), week 2 (w2: 1 nM estradiol), week 3 (w3: 1 nM estradiol and 10 nM progesterone), and week 4 (w4: 0.1 nM estradiol and 50 nM progesterone).

Structure (SMILES): CC(=O)[C@H]1CC[C@H]2[C@@H]3CCC4=CC(=O)CC[C@]4(C)[C@H]3CC[C@]12C [progesterone]
- cartilage anabolic markers (Sox9, Aggrecan): downregulation is still present
